Measurements as given in the NIST ThermoML archive (doi:10.1016/j.fluid.2005.07.017).

Experiment: xn = mol fraction of the nth substance listed
Settings: Liquid, Vibrating tube method

c1ccsc1 [thiophene] + O=C=O
Settings	mass density [kg/m3]
342.91 K, 11019 kPa, x2 = 0.3818	967.88
342.91 K, 11995 kPa, x2 = 0.3818	969.76
342.91 K, 12980 kPa, x2 = 0.3818	971.64
342.91 K, 14033 kPa, x2 = 0.3818	973.6
342.91 K, 15024 kPa, x2 = 0.3818	975.41
342.91 K, 15980 kPa, x2 = 0.3818	977.13
342.91 K, 17026 kPa, x2 = 0.3818	978.96
342.91 K, 18022 kPa, x2 = 0.3818	980.7
342.91 K, 19019 kPa, x2 = 0.3818	982.41
343.15 K, 101 kPa, x2 = 0	1002.15
352.59 K, 4979 kPa, x2 = 0.199	974.07
352.59 K, 5990 kPa, x2 = 0.199	975.64
352.59 K, 7029 kPa, x2 = 0.199	977.28
352.59 K, 8024 kPa, x2 = 0.199	978.8
352.59 K, 9035 kPa, x2 = 0.199	980.29
352.59 K, 9983 kPa, x2 = 0.199	981.7
352.59 K, 11018 kPa, x2 = 0.199	983.2
352.59 K, 12014 kPa, x2 = 0.199	984.65
352.59 K, 13125 kPa, x2 = 0.199	986.24
352.59 K, 14000 kPa, x2 = 0.199	987.44
352.59 K, 15014 kPa, x2 = 0.199	988.92
352.59 K, 15934 kPa, x2 = 0.199	990.14
352.59 K, 17055 kPa, x2 = 0.199	991.66
352.59 K, 17954 kPa, x2 = 0.199	992.83
352.59 K, 19034 kPa, x2 = 0.199	994.28
352.59 K, 20005 kPa, x2 = 0.199	995.52
352.67 K, 1064 kPa, x2 = 0	992.39
352.67 K, 2003 kPa, x2 = 0	993.54
352.67 K, 3024 kPa, x2 = 0	994.79
352.67 K, 4003 kPa, x2 = 0	995.98
352.67 K, 5048 kPa, x2 = 0	997.22
352.67 K, 6013 kPa, x2 = 0	998.36
352.67 K, 7013 kPa, x2 = 0	999.51
352.67 K, 8050 kPa, x2 = 0	1000.73
352.67 K, 9018 kPa, x2 = 0	1001.82
352.67 K, 10003 kPa, x2 = 0	1002.93
352.67 K, 11003 kPa, x2 = 0	1004.07
352.67 K, 12004 kPa, x2 = 0	1005.16
352.67 K, 12998 kPa, x2 = 0	1006.25
352.67 K, 14005 kPa, x2 = 0	1007.34
352.67 K, 15038 kPa, x2 = 0	1008.46
352.67 K, 16006 kPa, x2 = 0	1009.49
352.67 K, 17027 kPa, x2 = 0	1010.58
352.67 K, 18001 kPa, x2 = 0	1011.6
352.67 K, 19031 kPa, x2 = 0	1012.65
352.67 K, 20017 kPa, x2 = 0	1013.74
352.85 K, 7014 kPa, x2 = 0.3818	941.65
352.85 K, 8124 kPa, x2 = 0.3818	944.24
352.85 K, 9071 kPa, x2 = 0.3818	946.38
352.85 K, 10020 kPa, x2 = 0.3818	948.55
352.85 K, 11000 kPa, x2 = 0.3818	950.66
352.85 K, 12010 kPa, x2 = 0.3818	952.84
352.85 K, 13005 kPa, x2 = 0.3818	954.93
352.85 K, 14021 kPa, x2 = 0.3818	956.99
352.85 K, 15021 kPa, x2 = 0.3818	958.98
352.85 K, 16002 kPa, x2 = 0.3818	960.92
352.85 K, 17007 kPa, x2 = 0.3818	962.89
352.85 K, 18002 kPa, x2 = 0.3818	964.77
352.85 K, 19018 kPa, x2 = 0.3818	966.66
353.15 K, 101 kPa, x2 = 0	989.76
362.38 K, 5067 kPa, x2 = 0.199	959.54
362.38 K, 6020 kPa, x2 = 0.199	961.18
362.38 K, 7006 kPa, x2 = 0.199	962.87
362.38 K, 8052 kPa, x2 = 0.199	964.61
362.38 K, 9004 kPa, x2 = 0.199	966.16
362.38 K, 9993 kPa, x2 = 0.199	967.76
362.38 K, 11055 kPa, x2 = 0.199	969.42
362.38 K, 12043 kPa, x2 = 0.199	970.93
362.38 K, 13005 kPa, x2 = 0.199	972.44
362.38 K, 14008 kPa, x2 = 0.199	973.98
362.38 K, 14980 kPa, x2 = 0.199	975.41
362.38 K, 16011 kPa, x2 = 0.199	976.94
362.38 K, 17005 kPa, x2 = 0.199	978.39
362.38 K, 18009 kPa, x2 = 0.199	979.82
362.38 K, 19011 kPa, x2 = 0.199	981.22
362.38 K, 20040 kPa, x2 = 0.199	982.7
362.51 K, 1007 kPa, x2 = 0	979.8
362.51 K, 2022 kPa, x2 = 0	981.13
362.51 K, 3029 kPa, x2 = 0	982.49
362.51 K, 4004 kPa, x2 = 0	983.74
362.51 K, 5006 kPa, x2 = 0	985.01
362.51 K, 6003 kPa, x2 = 0	986.27
362.51 K, 6999 kPa, x2 = 0	987.5
362.51 K, 7993 kPa, x2 = 0	988.73
362.51 K, 9007 kPa, x2 = 0	989.99
362.51 K, 9993 kPa, x2 = 0	991.16
362.51 K, 10997 kPa, x2 = 0	992.36
362.51 K, 11993 kPa, x2 = 0	993.56
362.51 K, 12838 kPa, x2 = 0	994.53
362.51 K, 14038 kPa, x2 = 0	995.94
362.51 K, 15044 kPa, x2 = 0	997.1
362.51 K, 16029 kPa, x2 = 0	998.18
362.51 K, 17006 kPa, x2 = 0	999.27
362.51 K, 18016 kPa, x2 = 0	1000.4
362.51 K, 18987 kPa, x2 = 0	1001.47
362.73 K, 8081 kPa, x2 = 0.3818	925.8
362.73 K, 9009 kPa, x2 = 0.3818	928.21
362.73 K, 10010 kPa, x2 = 0.3818	930.72
362.73 K, 11009 kPa, x2 = 0.3818	933.15
362.73 K, 11996 kPa, x2 = 0.3818	935.49
362.73 K, 13008 kPa, x2 = 0.3818	937.87
362.73 K, 14001 kPa, x2 = 0.3818	940.11
362.73 K, 15006 kPa, x2 = 0.3818	942.32
362.73 K, 16002 kPa, x2 = 0.3818	944.47
362.73 K, 17016 kPa, x2 = 0.3818	946.62
362.73 K, 18023 kPa, x2 = 0.3818	948.72
362.73 K, 19014 kPa, x2 = 0.3818	950.73
